In general, melting point refers to the temperature, or range, at which the solid turns liquid.

Compound `Cc1cnc(C(=O)Nc2nc(-c3ccco3)c(C(=O)c3ccccn3)s2)cn1` [Compound 230, N-[4-(2-Furyl)-5-(pyridine-2-ylcarbonyl)thiazol-2-yl]-5-methylpyrazine-2-carboxamide] came in with a melting point of 208 to 209 °C.

On to `O=C(Nc1nc(-c2ccco2)c(C(=O)c2ccccn2)s1)c1cc[nH]c(=O)c1` [Compound 231, N-[4-(2-Furyl)-5-(pyridin-2-ylcarbonyl)thiazol-2-yl]-2-oxo-1,2-dihydropyridine-4-carboxamide], for which the melting point is 170 to 180 °C (dec.).

`O=C(Nc1nc(-c2ccco2)c(C(=O)c2ccccn2)s1)c1ccn(Cc2ccccc2)c(=O)c1` [Compound 232, 1-Benzyl-N-[4-(2-furyl)-5-(pyridin-2-ylcarbonyl)thiazol-2-yl]-2-oxo-1,2-dihydropyridine-4-carboxamide] yielded a melting point of 269 to 270 °C.

With `Cn1ccc(C(=O)Nc2nc(-c3ccco3)c(C(=O)c3ccccn3)s2)cc1=O` [Compound 233, N-[4-(2-Furyl)-5-(pyridin-2-ylcarbonyl)thiazol-2-yl]-1-methyl-2-oxo-1,2-dihydropyridine-4-carboxamide], the melting point lay within 280 to 285 °C.

In the case of `O=C(Nc1nc(-c2ccco2)c(C(=O)c2ccccn2)s1)c1ccc(Br)o1` [Compound 235, 5-Bromo-N-[4-(2-furyl)-5-(pyridin-2-ylcarbonyl)thiazol-2-yl]furan-2-carboxamide], the melting point fell in the range of 211 to 212 °C.

`O=C(Nc1nc(-c2ccco2)c(C(=O)c2ccccn2)s1)c1ccc([N+](=O)[O-])o1` [Compound 236, N-[4-(2-Furyl)-5-(pyridin-2-ylcarbonyl)thiazol-2-yl]-5-nitrofuran-2-carboxamide]: the melting point is 278 to 283 °C (dec.).

The compound `Cc1ccoc1C(=O)Nc1nc(-c2ccco2)c(C(=O)c2ccccn2)s1` [Compound 237, N-[4-(2-Furyl)-5-(pyridin-2-ylcarbonyl)thiazol-2-yl]-3-methylfuran-2-carboxamide] showed a melting point of 174 to 176 °C.

Compound `O=C(Nc1nc(-c2ccco2)c(C(=O)c2ccccn2)s1)c1ccoc1` [Compound 238, N-[4-(2-Furyl)-5-(pyridin-2-ylcarbonyl)thiazol-2-yl]furan-3-carboxamide] returned a melting point of 187 to 189 °C.

Consider `Cc1occc1C(=O)Nc1nc(-c2ccco2)c(C(=O)c2ccccn2)s1` [Compound 239, N-[4-(2-Furyl)-5-(pyridin-2-ylcarbonyl)thiazol-2-yl]-2-methylfuran-3-carboxamide], for which the melting point was 183 to 186 °C.

`Cc1cc(C(=O)Nc2nc(-c3ccco3)c(C(=O)c3ccccn3)s2)c(C)o1` [Compound 240, N-[4-(2-Furyl)-5-(pyridin-2-ylcarbonyl)thiazol-2-yl]-2,5-dimethylfuran-3-carboxamide]: the melting point was in the range of 195 to 198 °C.

The compound `O=C(Nc1nc(-c2ccco2)c(C(=O)c2ccccn2)s1)c1cccs1` [Compound 241, N-[4-(2-Furyl)-5-(pyridin-2-ylcarbonyl)thiazol-2-yl]thiophene-2-carboxamide] yielded a melting point of 197 to 199 °C.

`O=C(Nc1nc(-c2ccco2)c(C(=O)c2ccccn2)s1)c1ccno1` [Compound 242, N-[4-(2-Furyl)-5-(pyridin-2-ylcarbonyl)thiazol-2-yl]isoxazole-5-carboxamide] displayed a melting point of 223 to 230 °C.

In turn, `Cc1cc(C(=O)Nc2nc(-c3ccco3)c(C(=O)c3ccccn3)s2)no1` [Compound 243, N-[4-(2-Furyl)-5-(pyridin-2-ylcarbonyl)thiazol-2-yl]-5-methylisoxazole-3-carboxamide] had a melting point of 209 to 213 °C.

As for `O=C(Nc1nc(-c2ccco2)c(C(=O)c2ccccn2)s1)c1ccc2snnc2c1` [Compound 244, N-[4-(2-Furyl)-5-(pyridin-2-ylcarbonyl)thiazol-2-yl]-1,2,3-benzothiadiazole-5-carboxamide], the melting point was in the range of 213 to 218 °C.

Source of the values: US7718808B2, “Thiazole derivatives” (Kyowa Hakko Kirin Co., Ltd., priority 2003, dated 2010).
